Measurements reported in US20030148954A1, “Agents and methods for modulating activator protein-1-mediated cellular processes” (Wisconsin Alumni Research Foundation, priority 2001, published 2003).
Entries after “also recorded” stand apart in the source; their conditions may differ.

Tests used:
[1] = tested on: human Aγ globin promoter; experiment: pGL3γLuc reporter, transient transfection of K562 cells; type: cell-based
Experimental: (§1) Transient Transfections—K562 cells (5×10^5) were collected by centrifugation at 240×g for 8 min at 4° C. and resuspended in 4 ml of complete IMEM. Plasmid DNAs (1 μg of reporter and 2 μg of effector) were added to 150 μl of IMEM, incubated with Superfect (4 μl/1 μg DNA; Qiagen) for 10 min at room temperature and then added to cells.
(§2) For each transfection, cells were incubated for 26 h after transfection and then treated with TPA (final concentration: 5 nM) or the vehicle (DMSO). After incubating for another 12 or 16 h, cells were harvested and assayed for luciferase activity. Luciferase activity was normalized by the protein content of the lysates, determined by Bradford assay using γ-globulin as a standard.

[2] = tested on: AP-1; experiment: AP-1 luciferase reporter, transient transfection of K562 cells; type: cell-based, human
Text: (§3) Plasmids—The pBabe-NIC-1 (pNIC-1) expression vector encoding constitutively active Notch-1 (NIC-1) was described previously (36,37,51). This vector was derived from the pBabe-puro retroviral vector and includes a cDNA sequence encoding amino acids 1759-2556 of human Notch-1 with a Myc tag fused to its carboxyl terminus. Human NIC-1 deletion mutants were generated by PCR using a full-length human Notch-1 expression vector as the template. The Notch-dependent reporter plasmid containing four CBF1 binding sites and an simian virus 40 promoter fused to luciferase (p4×CBF1luc) was described previously (52). The AP-1 reporter plasmid (p1×AP1luc) containing a collagenase promoter fragment (−73/+67) with a single AP-1 binding site in the luciferase reporter vector pGL2-basic (Promega) was described previously (53). The NF-κB reporter plasmid (p3×κBluc) containing three NF-κB binding sites and a minimal promoter fused to luciferase was a kind gift of Dr. Shigeki Miyamoto (University of Wisconsin Medical School). The pBabe-H-Ras(12V) expression vector encoding constitutively active H-Ras was a kind gift of Dr. Charming Der (University of North Carolina-Chapel Hill). This vector was derived from the pBabe-puro retroviral vector and includes a cDNA encoding H-Ras with a Gly to Val mutation at amino acid 12.
as §1, §2

[3] = tested on: p38; experiment: Western blot with phospho-specific antibodies, p38; type: cell-based, human; conditions: K562-NIC-1 versus K562-Babe, 5 nM TPA 30 min
Experimental: (§4) Stable Transfection—K562 cells were stably transfected by electroporation with a Bio-Rad Gene pulser electroporator. Cells (5×10^6) were washed with ice-cold PBS, resuspended in 0.5 ml of ice-cold PBS, mixed with 5 μg linearized plasmid DNA, and subjected to electroporation (960 microfarad; 220 V) in a 0.4 cm-wide electroporation cuvette (BTX). pBabe and pNIC-1 were linearized with NotI. Cells were then added to 20 ml of complete IMEM, grown for 48 h, and diluted in complete IMEM containing 1.5 μg/ml puromycin (pools of K562-Babe and K562-NIC-1 cells). Stably transfected cells were analyzed for erythroid differentiation as soon as the pools were generated by benzidine staining to reduce the probability of phenotypic changes that may result from prolonged growth.
(§5) To measure the phosphorylation state of components of the MAPK pathway, K562-Babe and K562-NIC-1 cells (1×10^6) were collected after treatment with 5 nM TPA or DMSO for 30 min. Cells were washed once with ice-cold PBS, cell pellets were resuspended in 30 μl ice-cold PBS and were immediately boiled in 70 μl SDS sample buffer for 10 min. Proteins (10 μl) were resolved by SDS-PAGE on a 10% acrylamide gel and transferred to Immobilon P membrane (Millipore). […] Antigen-antibody complexes were detected with ECL Plus™ (Amersham Life Science) according to manufacturer's instructions.

[4] = tested on: MMP1; experiment: Northern blotting of MMP1 transcripts in K562-Babe and K562-NIC-1 cells; type: cell-based, human; conditions: 5 nM TPA 12 h, stably transfected NIC-1
Experimental: as §4
Northern Blotting—Total RNA from K562-Babe and K562-NIC-1 cells was extracted with Triazol (Life Technologies, Inc.). Ten μg of RNA per sample was electrophoresed on a 1% agarose, 6.6% formaldehyde gel and then transferred overnight to a Magnacharge nylon membrane (Osmonics). RNA was cross-linked to the membrane by UV irradiation. Membranes were prehybridized for 30 min at 60° C. in ExpressHyb hybridization solution (Clontech). […] Radioactivity was quantitated by PhosphorImager analysis with ImageQuant software (Molecular Dynamics).

[5] = tested on: CMV enhancer; experiment: pCMVβgal β-galactosidase reporter, transient transfection of K562 cells; type: cell-based, human
Experimental: as §1
(§6) For each transfection, cells were incubated for 26 h after transfection and then treated with TPA (final concentration: 5 nM) or the vehicle (DMSO). […] Luciferase activity was normalized by the protein content of the lysates, determined by Bradford assay using γ-globulin as a standard.

[6] = tested on: CSL (CBF1); experiment: CSL-dependent (p4×CBF1luc) luciferase reporter, transient transfection of K562 cells; type: cell-based, human
Text: as §3, with “The pBabe-H-Ras(12V) expression vector encoding constitutively active H-Ras was a kind gift of Dr. Charming Der (University of North Carolina-Chapel Hill). This vector was derived from the pBabe-puro retroviral vector and includes a cDNA encoding H-Ras with a Gly to Val mutation at amino acid 12.” left out
as §6

[7] = tested on: ERK1/2; experiment: Western blot with phospho-specific antibodies, ERK1/2; type: cell-based, human; conditions: K562-NIC-1 versus K562-Babe, 5 nM TPA 30 min
Experimental: as §4, §5

For “NIC-1: constitutively active Notch-1 intracellular domain, amino acids 1759-2556 of human Notch-1 with carboxyl-terminal Myc tag, expressed from pBabe-NIC-1”, the “effect on TPA-induced activity of pGL3γLuc” value ([1]; K562, TPA-induced) was “without affecting”, the “increase of basal activity of pGL3γLuc” value ([1]; K562, basal) was roughly 80% and the “component of TPA-induced AP-1 reporter activity insensitive to NIC-1” value ([2]; K562, both AP-1 reporters) was roughly 30%. For the same substance, the “inhibition of H-Ras(12V)-activated AP-1 reporter activity” value ([2]; K562, cotransfected pBabe-H-Ras(12V)) was “almost completely inhibited; also recorded: completely inhibits”, the “concentration response curve for AP-1 repression relative to CSL-dependent activation” value ([2]; K562, increasing amounts of NIC-1 expression vector, TPA 5 nM 12 h) was “slightly shifted to the left” and the “repression of TPA-induced AP-1 reporter activity” value ([2]; K562, p1×AP1luc, TPA 5 nM 12 or 16 h) was “repressed”. The “degree of repression of AP-1 reporter with tandem AP-1 binding sites upstream of a β-globin promoter” value ([2]; K562, pβ106(AP1)2luc, TPA) was “comparable to that seen with the MMP1 promoter”, the “inhibition of TPA-inducible AP-1 activity” value ([2]; K562, range of TPA concentrations, 16 h) was 70% and the “effect on TPA-induced or basal phosphorylation of p38” value [3] was “did not affect”. The “TPA induction of MMP1 transcript levels in K562-NIC-1 versus K562-Babe cells” value [4] was “considerably lower”, the “increase of TPA induced activity of pCMVβgal” value ([5]; K562, TPA induced) was roughly 2 fold and the “effect on basal activity of pCMVβgal” value ([5]; K562, basal) was “no effect”. The “activation of CSL-dependent reporter activity” value [6] was “strongly activated” and the “basal and TPA-induced ERK1/2 phosphorylation” value [7] was “slightly higher”.
